Reference: PubChem BioAssay (NCI)
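Test compounds were applied to cells in 96-well plates for 48 hours at 5 doses. TGI marks complete inhibition of growth.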

Legend:
Experiment in all cases: NCI tumour cell line growth inhibition, 48 h
[1] = test system: M14 melanoma
[2] = test system: MOLT-4 leukemia
[3] = test system: SF-539 CNS
[4] = test system: HCC-2998 colon
[5] = test system: HOP-62 NSCLC
[6] = test system: CAKI-1 renal
[7] = test system: HS 578T breast
[8] = test system: HCT-116 colon
[9] = test system: PC-3 prostate
[10] = test system: MDA-MB-231 breast
[11] = test system: NCI-H23 lung
[12] = test system: SK-MEL-28 melanoma
[13] = test system: OVCAR-8 ovarian
[14] = test system: HT29 colon
[15] = test system: SN12C renal
[16] = test system: RXF 393 renal
[17] = test system: SNB-19 CNS
[18] = test system: A498 renal
[19] = test system: CCRF-CEM leukemia
[20] = test system: NCI-H460 lung
[21] = test system: ACHN renal
[22] = test system: SK-OV-3 ovarian
[23] = test system: MDA-MB-435
[24] = test system: NCI/ADR-RES ovarian
[25] = test system: K-562 leukemia
[26] = test system: EKVX NSCLC
[27] = test system: UACC-257 melanoma
[28] = test system: UO-31 renal
[29] = test system: OVCAR-3 ovarian
[30] = test system: HL-60(TB) leukemia
[31] = test system: NCI-H522 lung
[32] = test system: SK-MEL-5 melanoma
[33] = test system: A549 NSCLC
[34] = test system: DU-145 prostate
[35] = test system: LOX IMVI melanoma
[36] = test system: MALME-3M melanoma
[37] = test system: BT-549 breast
[38] = test system: SR leukemia
[39] = test system: SW-620 colon
[40] = test system: T-47D breast
[41] = test system: MDA-N
[42] = test system: MCF7 breast
[43] = test system: UACC-62 melanoma
[44] = test system: NCI-H226 lung
[45] = test system: RPMI-8226 leukemia
[46] = test system: OVCAR-4 ovarian
[47] = test system: KM12 colon
[48] = test system: HCT-15 colon
[49] = test system: SK-MEL-2 melanoma
[50] = test system: OVCAR-5 ovarian
[51] = test system: SNB-75 CNS
[52] = test system: IGROV1 ovarian
[53] = test system: SF-295 CNS
[54] = test system: HOP-92 NSCLC
[55] = test system: SF-268 CNS
[56] = test system: COLO 205 colon
[57] = test system: TK-10 renal
[58] = test system: U251 CNS
[59] = test system: 786-0 renal

CC(=O)OCC1OC(n2c(-c3ccc(C)cc3)cc(-c3ccco3)c(C#N)c2=S)C(OC(C)=O)C(OC(C)=O)C1OC(C)=O (centres undefined)
TGI [1]: > 100 µM
TGI [2]: > 100 µM
TGI [3]: 36.1 µM
TGI [4]: > 100 µM
TGI [5]: > 100 µM
TGI [6]: > 100 µM
TGI [7]: > 100 µM
TGI [8]: > 100 µM
TGI [9]: > 100 µM
TGI [10]: 78.4 µM
TGI [11]: > 100 µM
TGI [12]: > 100 µM
TGI [13]: > 100 µM
TGI [14]: > 100 µM
TGI [15]: > 100 µM
TGI [16]: > 100 µM
TGI [17]: > 100 µM
TGI [18]: > 100 µM
TGI [19]: > 100 µM
TGI [20]: > 100 µM
TGI [21]: > 100 µM
TGI [22]: > 100 µM
TGI [23]: > 100 µM
TGI [24]: > 100 µM
TGI [25]: > 100 µM
TGI [26]: > 100 µM
TGI [27]: > 100 µM
TGI [28]: > 100 µM
TGI [29]: > 100 µM
TGI [30]: > 100 µM
TGI [31]: > 100 µM
TGI [32]: > 100 µM
TGI [33]: > 100 µM
TGI [34]: > 100 µM
TGI [35]: > 100 µM
TGI [36]: > 100 µM
TGI [37]: > 100 µM
TGI [38]: > 100 µM
TGI [39]: > 100 µM
TGI [40]: > 100 µM
TGI [41]: > 100 µM
TGI [42]: > 100 µM
TGI [43]: 45.2 µM
TGI [44]: > 100 µM
TGI [45]: > 100 µM
TGI [46]: > 100 µM
TGI [47]: > 100 µM
TGI [48]: > 100 µM
TGI [49]: > 100 µM
TGI [50]: > 100 µM
TGI [51]: > 100 µM
TGI [52]: > 100 µM
TGI [53]: > 100 µM
TGI [54]: 81.1 µM
TGI [55]: > 100 µM
TGI [56]: > 100 µM
TGI [57]: > 100 µM
TGI [58]: > 100 µM

CCC/C=C/C=C/C(=O)OC1C(C)C2(O)C3C=C(C)C(=O)C3CC(COC(C)=O)=CC2C2C(C)(C)C12OC(=O)C(C)C (centres undefined)
TGI [1]: 27.7 µM
TGI [2]: 16.2 µM
TGI [3]: 25 µM
TGI [4]: 14.7 µM
TGI [5]: 0.0586 µM
TGI [6]: 33.9 µM
TGI [7]: 55.4 µM
TGI [8]: 26.8 µM
TGI [9]: 27.3 µM
TGI [10]: 20.2 µM
TGI [11]: 26.9 µM
TGI [12]: 26.1 µM
TGI [13]: 55.8 µM
TGI [14]: 25 µM
TGI [15]: 23.5 µM
TGI [16]: 33.6 µM
TGI [17]: 52.6 µM
TGI [18]: 44.9 µM
TGI [19]: 19.1 µM
TGI [20]: > 83.7 µM
TGI [21]: 39.3 µM
TGI [22]: > 100 µM
TGI [23]: 18.3 µM
TGI [24]: 47.3 µM
TGI [25]: > 68.6 µM
TGI [26]: 42.5 µM
TGI [27]: 31.8 µM
TGI [28]: 29.4 µM
TGI [29]: 32.8 µM
TGI [30]: > 48.3 µM
TGI [31]: 26.8 µM
TGI [32]: 19.2 µM
TGI [59]: 23.1 µM
TGI [33]: > 100 µM
TGI [34]: > 100 µM
TGI [35]: 34.8 µM
TGI [36]: 26.5 µM
TGI [37]: 35.1 µM
TGI [38]: 35.8 µM
TGI [39]: 20.4 µM
TGI [40]: 35.4 µM
TGI [41]: 20.1 µM
TGI [42]: 32 µM
TGI [43]: 16.3 µM
TGI [44]: 42.1 µM
TGI [45]: 52.5 µM
TGI [46]: 57.6 µM
TGI [47]: 32 µM
TGI [49]: 35.2 µM
TGI [50]: 47.9 µM
TGI [51]: 36.1 µM
TGI [52]: 33.1 µM
TGI [53]: 22.1 µM
TGI [54]: 27.2 µM
TGI [55]: 28.4 µM
TGI [56]: 9.18 µM
TGI [57]: 47.1 µM

CCOC(=O)c1nc2cc(C(F)(F)F)ccc2nc1Nc1cc(OC)c(OC)c(OC)c1
TGI [1]: > 100 µM
TGI [2]: > 100 µM
TGI [3]: > 100 µM
TGI [4]: > 100 µM
TGI [5]: > 100 µM
TGI [6]: > 100 µM
TGI [7]: > 100 µM
TGI [8]: > 100 µM
TGI [9]: > 100 µM
TGI [10]: > 100 µM
TGI [11]: > 100 µM
TGI [12]: > 100 µM
TGI [13]: > 100 µM
TGI [14]: > 100 µM
TGI [15]: > 100 µM
TGI [16]: > 100 µM
TGI [17]: > 100 µM
TGI [18]: > 100 µM
TGI [19]: > 100 µM
TGI [20]: > 100 µM
TGI [21]: > 100 µM
TGI [22]: > 100 µM
TGI [23]: > 100 µM
TGI [24]: > 100 µM
TGI [25]: > 100 µM
TGI [26]: > 100 µM
TGI [27]: > 100 µM
TGI [28]: > 100 µM
TGI [29]: > 100 µM
TGI [30]: > 100 µM
TGI [31]: > 100 µM
TGI [32]: > 100 µM
TGI [59]: > 100 µM
TGI [33]: > 100 µM
TGI [34]: > 100 µM
TGI [35]: > 100 µM
TGI [36]: > 100 µM
TGI [37]: > 100 µM
TGI [38]: > 100 µM
TGI [39]: > 100 µM
TGI [40]: > 100 µM
TGI [41]: > 100 µM
TGI [42]: > 100 µM
TGI [43]: > 100 µM
TGI [44]: > 100 µM
TGI [45]: > 100 µM
TGI [47]: > 100 µM
TGI [48]: > 100 µM
TGI [50]: > 100 µM
TGI [51]: > 100 µM
TGI [52]: > 100 µM
TGI [53]: > 100 µM
TGI [54]: > 100 µM
TGI [55]: > 100 µM
TGI [56]: > 100 µM
TGI [57]: > 100 µM
TGI [58]: > 100 µM

Cc1ccc(/C=N/Nc2ccccn2)s1
TGI [1]: > 100 µM
TGI [2]: > 100 µM
TGI [3]: > 100 µM
TGI [4]: > 100 µM
TGI [5]: > 100 µM
TGI [6]: > 100 µM
TGI [7]: > 100 µM
TGI [8]: > 100 µM
TGI [9]: > 100 µM
TGI [10]: > 100 µM
TGI [11]: > 100 µM
TGI [12]: > 100 µM
TGI [13]: > 100 µM
TGI [14]: > 100 µM
TGI [15]: > 100 µM
TGI [16]: > 100 µM
TGI [17]: > 100 µM
TGI [18]: > 100 µM
TGI [19]: > 100 µM
TGI [20]: > 100 µM
TGI [21]: > 100 µM
TGI [22]: > 100 µM
TGI [23]: > 100 µM
TGI [24]: > 100 µM
TGI [26]: > 100 µM
TGI [27]: > 100 µM
TGI [28]: > 100 µM
TGI [29]: > 100 µM
TGI [30]: > 100 µM
TGI [31]: > 100 µM
TGI [32]: > 100 µM
TGI [59]: > 100 µM
TGI [33]: > 100 µM
TGI [34]: > 100 µM
TGI [35]: > 100 µM
TGI [36]: > 100 µM
TGI [37]: > 100 µM
TGI [38]: > 100 µM
TGI [39]: > 100 µM
TGI [40]: > 100 µM
TGI [41]: > 100 µM
TGI [42]: > 100 µM
TGI [43]: > 100 µM
TGI [44]: > 100 µM
TGI [45]: > 100 µM
TGI [46]: > 100 µM
TGI [47]: > 100 µM
TGI [48]: > 100 µM
TGI [49]: > 100 µM
TGI [50]: > 100 µM
TGI [51]: > 100 µM
TGI [52]: > 100 µM
TGI [53]: > 100 µM
TGI [54]: > 100 µM
TGI [55]: > 100 µM
TGI [56]: > 100 µM
TGI [57]: > 31.6 µM
TGI [58]: > 100 µM

Cc1c(-c2ccccc2)c(C#N)c2nnn(-c3ccc([N+](=O)[O-])cc3)c(=O)n12
TGI [3]: 27 µM
TGI [4]: > 100 µM
TGI [5]: 45 µM
TGI [6]: > 100 µM
TGI [7]: > 100 µM
TGI [8]: > 100 µM
TGI [9]: 9.54 µM
TGI [10]: 27.2 µM
TGI [11]: 86.5 µM
TGI [12]: > 100 µM
TGI [13]: 23.6 µM
TGI [14]: 75.3 µM
TGI [15]: 69.2 µM
TGI [16]: 48.2 µM
TGI [18]: 49 µM
TGI [19]: 58.2 µM
TGI [20]: > 100 µM
TGI [21]: > 100 µM
TGI [22]: > 100 µM
TGI [23]: > 100 µM
TGI [24]: 64.7 µM
TGI [25]: > 100 µM
TGI [26]: 23.8 µM
TGI [27]: > 100 µM
TGI [29]: 39.8 µM
TGI [30]: 13.9 µM
TGI [31]: 33 µM
TGI [32]: > 100 µM
TGI [59]: 18.4 µM
TGI [34]: 23.2 µM
TGI [35]: 42.8 µM
TGI [36]: > 100 µM
TGI [37]: 69.9 µM
TGI [38]: > 100 µM
TGI [39]: > 100 µM
TGI [40]: > 100 µM
TGI [41]: > 100 µM
TGI [42]: 68.7 µM
TGI [43]: > 100 µM
TGI [44]: 34 µM
TGI [45]: > 100 µM
TGI [46]: 38.2 µM
TGI [47]: > 100 µM
TGI [48]: > 100 µM
TGI [49]: 28.6 µM
TGI [50]: 95.4 µM
TGI [51]: 44.1 µM
TGI [52]: 25.3 µM
TGI [53]: 74.9 µM
TGI [54]: 45.4 µM
TGI [55]: 45.3 µM
TGI [56]: 40.6 µM
TGI [57]: 90 µM
TGI [58]: 21.5 µM
